Test results: publication PMC4340362 (ACS Chemical Biology, 2014)
Where two headings read alike, the source gives them in different places.

System: MDA-MB-231 breast cancer cells
Test: Quantitative scratch-wound
Format: cell-based
Conditions: Homo sapiens

Compound: C[C@@H]1O[C@@H](O[C@H]2C[C@@H](O)[C@]3(CO)[C@H]4[C@H](O)C[C@]5(C)[C@@H](C6=CC(=O)OC6)CC[C@]5(O)[C@@H]4CC[C@]3(O)C2)[C@H](O)[C@H](O)[C@H]1O [Compound 1, ouabain]
- IC50 (MDA-MB-231, read-out: Cell migration IC50): 173 nM
- IC50 (MDA-MB-231, read-out: cell migration): 173 nM
